Measured values taken from patent US8802597B2, “Herbicidal pyrimidines” (E I du Pont de Nemours and Company, priority 2003, dated 2014).
Read-outs that look alike come from different tables or passages of the source.

Key:
Type in all cases: in vivo
[1] = tested on: barnyardgrass (Echinochloa crus-galli); test: Test A pre/postemergence; conditions: Echinochloa crus-galli, 240 h, read-out: Plant response rating, Barnyardgrass; for pest or weed control at 125 g/ha: 125 g ai/ha; for pest or weed control at 500 g/ha: 500 g ai/ha
Method in brief: (§1)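 Visual injury scores on a 0–100 scale, 100 being complete control, were assigned roughly ten days after treatment by comparison with untreated greenhouse controls. Test chemicals, formulated with surfactant in non-phytotoxic solvent, were sprayed onto soil preemergence and onto 1–2-leaf plants 2–10 cm tall postemergence.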

[2] = tested on: giant foxtail (Setaria faberi); test: Test A pre/postemergence; conditions: Setaria faberi, 240 h, read-out: Plant response rating, Foxtail, Giant; for pest or weed control at 125 g/ha: 125 g ai/ha; for pest or weed control at 500 g/ha: 500 g ai/ha
Method in brief: as §1

[3] = tested on: bermudagrass (Cynodon dactylon); test: Test C pre/postemergence; conditions: Cynodon dactylon; for pest or weed control at 31 g/ha: 31 g ai/ha; for pest or weed control at 62 g/ha: 62 g ai/ha; for pest or weed control at 125 g/ha: 125 g ai/ha
Method in brief: (§2)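 Rating scale 0–100: 0 means no effect, 100 complete control; taken visually 12 to 14 days post-treatment versus controls. Pre- and postemergence greenhouse applications, postemergence at 1- to 4-leaf stage, non-phytotoxic solvent with surfactant as carrier.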

[4] = tested on: cocklebur (Xanthium strumarium); test: Test C pre/postemergence; conditions: Xanthium strumarium; for pest or weed control at 31 g/ha: 31 g ai/ha; for pest or weed control at 62 g/ha: 62 g ai/ha; for pest or weed control at 125 g/ha: 125 g ai/ha
Method in brief: as §2

corn (Zea mays) = test: Test C pre/postemergence; conditions: Zea mays; for Corn plant response rating (crop injury, 0 = no effect, 100 = complete kill) at 31 g/ha: 31 g ai/ha; for Corn plant response rating (crop injury, 0 = no effect, 100 = complete kill) at 62 g/ha: 62 g ai/ha; for Corn plant response rating (crop injury, 0 = no effect, 100 = complete kill) at 125 g/ha: 125 g ai/ha
Method in brief: as §2

[5] = tested on: crabgrass (Digitaria sanguinalis); test: Test C pre/postemergence; conditions: Digitaria sanguinalis; for pest or weed control at 31 g/ha: 31 g ai/ha; for pest or weed control at 62 g/ha: 62 g ai/ha; for pest or weed control at 125 g/ha: 125 g ai/ha
Method in brief: as §2

[6] = tested on: eastern black nightshade (Solanum ptycanthum); test: Test C pre/postemergence; conditions: Solanum, pre-emergence, Preemergence, scale 0 to 100, 0 no effect, 100 complete control, read-out: Plant response rating, Nightshade
Method in brief: as §2

[7] = tested on: goosegrass (Eleusine indica); test: Test C pre/postemergence; conditions: Eleusine indica; for pest or weed control at 31 g/ha: 31 g ai/ha; for pest or weed control at 62 g/ha: 62 g ai/ha; for pest or weed control at 125 g/ha: 125 g ai/ha
Method in brief: as §2

[8] = tested on: lambsquarters (Chenopodium album); test: Test C pre/postemergence; conditions: Chenopodium album; for pest or weed control at 31 g/ha: 31 g ai/ha; for pest or weed control at 62 g/ha: 62 g ai/ha; for pest or weed control at 125 g/ha: 125 g ai/ha
Method in brief: as §2

[9] = tested on: velvetleaf (Abutilon theophrasti); test: Test C pre/postemergence; conditions: Abutilon theophrasti; for pest or weed control at 31 g/ha: 31 g ai/ha; for pest or weed control at 62 g/ha: 62 g ai/ha
Method in brief: as §2

[10] = post-emergence, Postemergence, 0 to 100 scale (0 no effect, 100 complete control)
[11] = pre-emergence, Preemergence, 0 to 100 scale where 0 is no effect and 100 is complete control, approximately ten days
[12] = post-emergence, Postemergence, scale 0 to 100 (0 no effect, 100 complete control), read-out: Bermudagrass plant response rating
[13] = pre-emergence, Preemergence, scale 0 to 100, 0 no effect, 100 complete control, read-out: Plant response rating, Bermudagrass
[14] = post-emergence, Postemergence, read-out: Plant response rating (scale of 0 to 100), Cocklebur
[15] = pre-emergence, Preemergence, scale 0 to 100, 0 no effect, 100 complete control, read-out: Plant response rating, Cocklebur
[16] = post-emergence, Postemergence, read-out: Plant response rating (scale of 0 to 100), Corn
[17] = pre-emergence, Preemergence, scale 0 to 100, 0 no effect, 100 complete control, read-out: Plant response rating, Corn
[18] = post-emergence, Postemergence, read-out: Plant response rating (scale of 0 to 100), Crabgrass
[19] = pre-emergence, Preemergence, scale 0 to 100, 0 no effect, 100 complete control, read-out: Plant response rating, Crabgrass
[20] = post-emergence, Postemergence, read-out: Plant response rating (scale of 0 to 100), Goosegrass
[21] = pre-emergence, Preemergence, scale 0 to 100, 0 no effect, 100 complete control, read-out: Plant response rating, Goosegrass
[22] = post-emergence, Postemergence, read-out: Plant response rating (scale of 0 to 100), Lambsquarters
[23] = pre-emergence, Preemergence, scale 0 to 100, 0 no effect, 100 complete control, read-out: Plant response rating, Lambsquarters
[24] = post-emergence, Postemergence, read-out: Plant response rating (scale of 0 to 100), Velvetleaf
[25] = pre-emergence, Preemergence, scale 0 to 100, 0 no effect, 100 complete control, read-out: Plant response rating, Velvetleaf

Nc1nc(C2CC2)nc(C(=O)OCc2ccccc2)c1Cl [Compound 78, phenylmethyl 6-amino-5-chloro-2-cyclopropyl-4-pyrimidinecarboxylate]
pest or weed control at 125 g/ha [1, 10]: 80% | pest or weed control at 500 g/ha [1, 10]: 90% | pest or weed control at 125 g/ha [1, 11]: 45% | pest or weed control at 500 g/ha [1, 11]: 75% | pest or weed control at 125 g/ha [2, 10]: 70% | pest or weed control at 500 g/ha [2, 10]: 80% | pest or weed control at 125 g/ha [2, 11]: 10% | pest or weed control at 500 g/ha [2, 11]: 65% | pest or weed control at 31 g/ha ([3]; post-emergence, Postemergence, read-out: Plant response rating (scale of 0 to 100), Bermudagrass): 60% | pest or weed control at 62 g/ha [3, 12]: 60% | pest or weed control at 125 g/ha [3, 12]: 60% | pest or weed control at 250 g/ha ([3]; post-emergence, Postemergence, 250 g ai/ha, scale 0 to 100, read-out: Plant response rating, Bermudagrass): 65% | pest or weed control at 16 g/ha ([3]; pre-emergence, Preemergence, 16 g ai/ha, scale 0 to 100, 0 no effect, 100 complete control, read-out: Plant response rating, Bermudagrass): 0% | pest or weed control at 31 g/ha [3, 13]: 0% | pest or weed control at 62 g/ha [3, 13]: 0% | pest or weed control at 125 g/ha ([3]; pre-emergence, Preemergence, scale 0 to 100, read-out: Plant response rating, Bermudagrass): 20% | pest or weed control at 31 g/ha [4, 14]: 90% | pest or weed control at 62 g/ha [4, 14]: 100% | pest or weed control at 125 g/ha ([4]; post-emergence, Postemergence, scale 0 to 100 (0 no effect, 100 complete control), read-out: Cocklebur plant response rating): 100% | pest or weed control at 250 g/ha ([4]; post-emergence, Postemergence, 250 g ai/ha, scale 0 to 100, read-out: Plant response rating, Cocklebur): 100% | pest or weed control at 16 g/ha ([4]; pre-emergence, Preemergence, 16 g ai/ha, scale 0 to 100, 0 no effect, 100 complete control, read-out: Plant response rating, Cocklebur): 55% | pest or weed control at 31 g/ha [4, 15]: 70% | pest or weed control at 62 g/ha [4, 15]: 90% | pest or weed control at 125 g/ha ([4]; pre-emergence, Preemergence, scale 0 to 100, read-out: Plant response rating, Cocklebur): 90% | Corn plant response rating (crop injury, 0 = no effect, 100 = complete kill) at 31 g/ha (corn (Zea mays); [16]): 40% | Corn plant response rating (crop injury, 0 = no effect, 100 = complete kill) at 62 g/ha (corn (Zea mays); [16]): 40% | Corn plant response rating (crop injury, 0 = no effect, 100 = complete kill) at 125 g/ha (corn (Zea mays); post-emergence, Postemergence, scale 0 to 100 (0 no effect, 100 complete control), read-out: Corn plant response rating): 40% | Corn plant response rating (crop injury, 0 = no effect, 100 = complete kill) at 250 g/ha (corn (Zea mays); post-emergence, Postemergence, 250 g ai/ha, scale 0 to 100): 40% | Corn plant response rating (crop injury, 0 = no effect, 100 = complete kill) at 16 g/ha (corn (Zea mays); pre-emergence, Preemergence, 16 g ai/ha, scale 0 to 100, 0 no effect, 100 complete control, read-out: Plant response rating, Corn): 0% | Corn plant response rating (crop injury, 0 = no effect, 100 = complete kill) at 31 g/ha (corn (Zea mays); [17]): 0% | Corn plant response rating (crop injury, 0 = no effect, 100 = complete kill) at 62 g/ha (corn (Zea mays); [17]): 20% | Corn plant response rating (crop injury, 0 = no effect, 100 = complete kill) at 125 g/ha (corn (Zea mays); pre-emergence, Preemergence, scale 0 to 100, read-out: Plant response rating, Corn): 40% | pest or weed control at 31 g/ha [5, 18]: 55% | pest or weed control at 62 g/ha [5, 18]: 90% | pest or weed control at 125 g/ha ([5]; post-emergence, Postemergence, scale 0 to 100 (0 no effect, 100 complete control), read-out: Crabgrass plant response rating): 90% | pest or weed control at 250 g/ha ([5]; post-emergence, Postemergence, 250 g ai/ha, scale 0 to 100, read-out: Plant response rating, Crabgrass): 90% | pest or weed control at 16 g/ha ([5]; pre-emergence, Preemergence, 16 g ai/ha, scale 0 to 100, 0 no effect, 100 complete control, read-out: Plant response rating, Crabgrass): 0% | pest or weed control at 31 g/ha [5, 19]: 5% | pest or weed control at 62 g/ha [5, 19]: 40% | pest or weed control at 125 g/ha ([5]; pre-emergence, Preemergence, scale 0 to 100, read-out: Plant response rating, Crabgrass): 45% | pest or weed control at 16 g/ha ([6]; 16 g ai/ha): 0% | pest or weed control at 31 g/ha ([6]; 31 g ai/ha): 30% | pest or weed control at 62 g/ha ([6]; 62 g ai/ha): 60% | pest or weed control at 31 g/ha [7, 20]: 0% | pest or weed control at 62 g/ha [7, 20]: 0% | pest or weed control at 125 g/ha ([7]; post-emergence, Postemergence, scale 0 to 100 (0 no effect, 100 complete control), read-out: Goosegrass plant response rating): 40% | pest or weed control at 250 g/ha ([7]; post-emergence, Postemergence, 250 g ai/ha, scale 0 to 100, read-out: Plant response rating, Goosegrass): 50% | pest or weed control at 16 g/ha ([7]; pre-emergence, Preemergence, 16 g ai/ha, scale 0 to 100, 0 no effect, 100 complete control, read-out: Plant response rating, Goosegrass): 0% | pest or weed control at 31 g/ha [7, 21]: 0% | pest or weed control at 62 g/ha [7, 21]: 0% | pest or weed control at 125 g/ha ([7]; pre-emergence, Preemergence, scale 0 to 100, read-out: Plant response rating, Goosegrass): 0% | pest or weed control at 31 g/ha [8, 22]: 90% | pest or weed control at 62 g/ha [8, 22]: 95% | pest or weed control at 125 g/ha ([8]; post-emergence, Postemergence, scale 0 to 100 (0 no effect, 100 complete control), read-out: Lambsquarters plant response rating): 95% | pest or weed control at 250 g/ha ([8]; post-emergence, Postemergence, 250 g ai/ha, scale 0 to 100, read-out: Plant response rating, Lambsquarters): 100% | pest or weed control at 16 g/ha ([8]; pre-emergence, Preemergence, 16 g ai/ha, scale 0 to 100, 0 no effect, 100 complete control, read-out: Plant response rating, Lambsquarters): 0% | pest or weed control at 31 g/ha [8, 23]: 70% | pest or weed control at 62 g/ha [8, 23]: 80% | pest or weed control at 125 g/ha ([8]; pre-emergence, Preemergence, scale 0 to 100, read-out: Plant response rating, Lambsquarters): 80% | pest or weed control at 31 g/ha [9, 24]: 50% | pest or weed control at 62 g/ha [9, 24]: 80% | pest or weed control at 125 g/ha ([9]; post-emergence, Postemergence, 125 g ai/ha, scale 0 to 100 (0 no effect, 100 complete control), read-out: Velvetleaf plant response rating): 95% | pest or weed control at 250 g/ha ([9]; post-emergence, Postemergence, 250 g ai/ha, scale 0 to 100, read-out: Plant response rating, Velvetleaf): 100% | pest or weed control at 16 g/ha ([9]; pre-emergence, Preemergence, 16 g ai/ha, scale 0 to 100, 0 no effect, 100 complete control, read-out: Plant response rating, Velvetleaf): 10% | pest or weed control at 31 g/ha [9, 25]: 55% | pest or weed control at 62 g/ha [9, 25]: 70%
